Results as given in patent US12104173B2, “Method for differentiation of human pluripotent stem cell lines in suspension culture” (AGENCY FOR SCIENCE, TECHNOLOGY AND RESEARCH, priority 2018, dated 2024).

B1: BMP4: bone morphogenic protein; BMP4-based protocol uses 50 ng/ml BMP4 (protein, UniProt P12644 293-408, looked up)
Bone morphogenetic protein 4: SPKHHSQRARKKNKNCRRHSLYVDFSDVGWNDWIVAPPGYQAFYCHGDCPFPLADHLNSTNHAIVQTLVNSVNSSIPKACCVPTELSAISMLYLDEYDKVVLKNYQEMVVEGCGCR

Tests used:
Assay type in all cases: cell-based, human
BR7 O-neg hiPSC line = test: CHIR dose: hematopoietic/erythroid differentiation of agitated hPSC-MC aggregates; conditions: optimal dose of CHIR-99021, day 4
[1] = tested on: hES-3-MC aggregates (agitation culture); test: DoE: hematopoietic precursor generation, 14 days in Blast growth medium (BGM); conditions: BMP4 10 to 50 ng/ml, Activin A 0-80 ng/ml, CHIR exposure 0 to 24 hours, 2 weeks in BGM
Method: (§1) Different doses (and/or duration of exposure) of cytokines and small-molecules with known roles in inducing mesoderm and hematopoietic differentiation were evaluated using the MODDE® software for differentiation of hES-3 MC aggregate cultures initially derived under agitation. The DoE was designed to investigate effects of BMP4 (10-50 ng/ml), Activin A (0 to 80 ng/ml), CHIR (0-15 μM at 0 to 48 hours after start of mesoderm induction). These variables generated 29 culture conditions (FIG. 2A), which were tested for their effects on percent of KDR+ cells (4 days post initiation of differentiation) and the following stage of hematopoietic precursors generation (2 weeks of culture in Blast growth medium (BGM)).
(§2) Design of experiments (DoE) using a resolution IV Fractional Factorial Design was performed using the MODDE software (Sartorius Stedim Biotech, Germany) to evaluate initial BMP4, Activin A and CHIR-99021, doses and duration of exposure for their effects on the following response factors: induction of KDR+ cells 4 days post mesoderm induction or total hematopoietic precursors generated 2 weeks post differentiation. […] Computed model with R2 scores>0.5 indicate a model of significant fit, Q2 scores>0.1 indicate a significant model while Q2>0.5 indicate a good model for estimation of future prediction precision, model validity score of <0.25 indicate statistically significant model problems and reproducibility (the variation of the replicates compared to overall variability) should be greater than 0.5.
Human pluripotent stem cell-microcarrier (HPSC-MC) aggregates (derived from 7 day continuous agitation conditions), equivalent to 5×10^5 cells, were seeded and differentiated in 24-well ultra-low attachment plates with Stemline II medium using multi-factorial conditions as detailed in FIG. 2A and FIG. 6A, as well as in Table 3. […]
Following 4 days of differentiation, single cells were derived from microcarrier aggregates by treatment with TrypLE. […] Fold-expansion was calculated as total number of cells derived after 2 weeks as compared to initial seeding of 1×10^5 cells.

[2] = tested on: hES-3 microcarrier aggregates; test: BMP4-based vs CHIR-based differentiation: erythroblasts output per hPSC seeded
Text: Six conditions were then chosen for the detailed study; conditions 1, 2 and 4 were based on BMP4/Activin A protocols, while conditions 7, 16 and 18 were CHIR-mediated protocols (Table 1).

X13 O-neg hiPSC line = test: CHIR dose: hematopoietic/erythroid differentiation of agitated hPSC-MC aggregates; conditions: optimal dose of CHIR-99021, day 4
D9 O-neg hiPSC line = test: as above; conditions: optimal dose of CHIR-99021, day 4
[3] = tested on: hES-3-MC aggregates (agitation culture); test: DoE multifactorial mesoderm induction: % KDR+ cells by flow cytometry; conditions: BMP4 10 to 50 ng/ml, Activin A 0-80 ng/ml, CHIR exposure 0 to 24 hours, 4 days post initiation of differentiation
Method: as §1
Design of experiments (DoE) using a resolution IV Fractional Factorial Design was performed using the MODDE software (Sartorius Stedim Biotech, Germany) to evaluate initial BMP4, Activin A and CHIR-99021, doses and duration of exposure for their effects on the following response factors: induction of KDR+ cells 4 days post mesoderm induction or total hematopoietic precursor cells generated 2 weeks post differentiation.
as §2, with “0.5. […]” for “0.5.”

[4] = hES-3 microcarrier aggregates derived from agitation condition
[5] = hES-3 microcarrier aggregates derived from static condition

Molecule | Mesoderm induction % KDR+ PDGFRα− (BR7 O-neg hiPSC line) [%] | effect of factor on hematopoietic precursor generation (DoE) [1] | erythroblasts output per human pluripotent stem cell seeded [2, 4] | erythroblasts output per human pluripotent stem cell seeded [2, 5] | Mesoderm induction % KDR+ PDGFRα− (X13 O-neg hiPSC line) [%] | Mesoderm induction % KDR+ PDGFRα− (D9 O-neg hiPSC line) [%] | effect of factor on percent of KDR+ cells (DoE) [3]
Cc1c[nH]c(-c2cnc(NCCNc3ccc(C#N)cn3)nc2-c2ccc(Cl)cc2Cl)n1 [CHIR-99021, 6-[[2-[[4-(2,4-Dichlorophenyl)-5-(5-methyl-1H-imidazol-2-yl)-2-pyrimidinyl]amino]ethyl]amino]-3-pyridinecarbonitrile] | 18.6 | significant increase | 8.0±2.1 | 11.5±2.6 | 40.8 | 20.9 | significant increase
B1 | – | did not significantly alter | 1.2±0.7 | 7.7±1.9 | – | – | did not significantly alter
